Measured values reported in ChEMBL document CHEMBL1137863, “Triamino derivatives of triazolotriazine and triazolopyrimidine as adenosine A2a receptor antagonists” (Bioorg Med Chem Lett, 2004).
Values belong to the molecule of their own block, whether it stands above or below them.

How the values were obtained:
Adenosine receptor A2a = Adenosine receptor A2a (Rattus norvegicus, UniProt P30543)
Description: Binding affinity against Adenosine A2a receptor determined using [3H]ZM-241385 as radioligand

Mus musculus = experiment: Dose required for oral activity against mice catalepsy induced by 3 mg/kg haloperidol after s.c. administration; format: functional
Adenosine receptor A1 = molecular target: T1, Adenosine receptor A1 (Rattus norvegicus, UniProt P25099); experiment: biochemical
T1 sequence (P25099 whole entry): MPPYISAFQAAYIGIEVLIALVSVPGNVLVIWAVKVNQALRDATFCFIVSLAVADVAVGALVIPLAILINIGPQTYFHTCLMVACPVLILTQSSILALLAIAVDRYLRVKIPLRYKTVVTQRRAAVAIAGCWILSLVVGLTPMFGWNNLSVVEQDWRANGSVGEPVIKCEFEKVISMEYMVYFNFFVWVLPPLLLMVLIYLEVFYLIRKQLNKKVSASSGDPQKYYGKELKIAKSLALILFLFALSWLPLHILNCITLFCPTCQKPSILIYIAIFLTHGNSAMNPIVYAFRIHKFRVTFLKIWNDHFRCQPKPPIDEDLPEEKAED
Description: Binding affinity against Adenosine A1 receptor from rat cerebral cortex was determined using [3H]DPCPX as radioligand

Adenosine receptor A2a, sequence (P30543 whole entry): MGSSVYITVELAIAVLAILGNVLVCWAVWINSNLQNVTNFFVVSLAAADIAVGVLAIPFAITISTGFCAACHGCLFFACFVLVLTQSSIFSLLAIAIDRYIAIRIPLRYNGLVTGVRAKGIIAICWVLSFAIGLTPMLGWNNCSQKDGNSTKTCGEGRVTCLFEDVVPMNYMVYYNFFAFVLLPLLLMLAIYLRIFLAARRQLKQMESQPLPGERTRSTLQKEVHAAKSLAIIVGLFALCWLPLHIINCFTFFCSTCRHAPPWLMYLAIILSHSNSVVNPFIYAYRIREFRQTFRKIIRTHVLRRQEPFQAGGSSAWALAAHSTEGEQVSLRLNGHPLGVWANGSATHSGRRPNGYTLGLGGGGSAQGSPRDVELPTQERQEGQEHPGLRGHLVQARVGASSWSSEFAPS

Structure (SMILES): Nc1nc(N2CCN(c3c(F)cc(F)cc3F)CC2)nc2nc(-c3ccco3)nn12
- Ki (Adenosine receptor A2a): 29 nM

Structure (SMILES): CN(CCN1CCN(c2ccc(F)cc2F)CC1)c1nc(N)n2nc(-c3ccco3)nc2n1
- Dose (Mus musculus): 3 mg/kg

Structure (SMILES): Nc1nc(NCCCN2CCN(c3ccc(F)cc3F)CC2)nc2nc(-c3ccco3)nn12
- Ki (Adenosine receptor A1): > 500 nM
- Ki (Adenosine receptor A2a): 93 nM

Structure (SMILES): Nc1nc(NCCCN2CCN(c3ccccc3)CC2)nc2nc(-c3ccco3)nn12
- Ki (Adenosine receptor A1): > 500 nM

Structure (SMILES): Nc1nc(NCCCN2CCN(c3c(F)cc(F)cc3F)CC2)nc2nc(-c3ccco3)nn12
- Ki (Adenosine receptor A1): > 500 nM
- Ki (Adenosine receptor A2a): 100 nM

Continued, in another order:

- Ki (Adenosine receptor A1): > 500 nM
- Ki (Adenosine receptor A2a): 92 nM
Structure (SMILES): Nc1nc(NCCN2CCN(c3c(F)cc(F)cc3F)CC2)cc2nc(-c3ccco3)nn12

- Ki (Adenosine receptor A1): > 500 nM
- Ki (Adenosine receptor A2a): 24 nM
Structure (SMILES): Nc1nc(NCCN2CCN(c3c(F)cc(F)cc3F)CC2)nc2nc(-c3ccco3)nn12

- Ki (Adenosine receptor A1): > 500 nM
- Ki (Adenosine receptor A2a): 22 nM
Structure (SMILES): Nc1nc(NCCN2CCN(c3ccccc3)CC2)nc2nc(-c3ccco3)nn12
- Dose (Mus musculus): >10 mg/kg

- Ki (Adenosine receptor A1): 790 nM
- Ki (Adenosine receptor A2a): 24 nM
Structure (SMILES): CN(CCN1CCN(c2c(F)cc(F)cc2F)CC1)c1cc2nc(-c3ccco3)nn2c(N)n1

- Ki (Adenosine receptor A1): 1500 nM
- Ki (Adenosine receptor A2a): 11 nM
Structure (SMILES): CN(CCN1CCN(c2ccccc2)CC1)c1nc(N)n2nc(-c3ccco3)nc2n1
- Dose (Mus musculus): 3 mg/kg

- Ki (Adenosine receptor A1): 1100 nM
Structure (SMILES): Nc1nc(NCCN2CCN(c3ccc(F)cc3F)CC2)nc2nc(-c3ccco3)nn12
- Dose (Mus musculus): 10 mg/kg

- Ki (Adenosine receptor A1): 750 nM
Structure (SMILES): CN(CCN1CCN(c2ccc(F)cc2F)CC1)c1cc2nc(-c3ccco3)nn2c(N)n1
- Dose (Mus musculus): 3 mg/kg

- Ki (Adenosine receptor A1): 2600 nM
- Ki (Adenosine receptor A2a): 55 nM
Structure (SMILES): Nc1nc(NCCN2CCN(c3ccc(F)cc3F)CC2)cc2nc(-c3ccco3)nn12
- Dose (Mus musculus): >10 mg/kg
